One series deals with subjects with TRD. Particulars: human, in vivo, other: intranasal.
Series [1] has as its system elderly subjects with TRD. Particulars: human, in vivo, other: intranasal. From the text:
The Modified Observer's Assessment of Alertness/Sedation (MOAA/S) was used to measure treatment-emergent sedation with correlation to levels of sedation defined by the American Society of Anesthesiologists (ASA) continuum. The MOAA/S scores range from 0 (No response to painful stimulus; corresponds to ASA continuum for general anesthesia) to 5 (Readily responds to name spoken in normal tone [awake]; corresponds to ASA continuum for minimal sedation). The proportion of subjects with sedation was <4% for the esketamine group for each dosing day.

How the values of series [2] were obtained:
This example provides an LC-MS/MS method for the determination of ketamine and norketamine in sodium heparin human plasma using ketamine-d4 and norketamine-d4 as the respective internal standards (IS).
Retention time and peak area were determined by Analyst® Data Acquisition/Processing Software (Version 1.4.2). Analyte concentrations were obtained from a calibration curve constructed by plotting the peak area ratio versus the concentration using Watson LIMS (Version 7.3). Watson LIMS and Microsoft Office Excel were used for statistical calculations. When Office Excel was used the calculations were 100% audited. Concentrations were calculated using linear regression according to the following equation: […]
Selectivity is defined as the ability of a chromatographic method to measure a response from the analyte without interference from the biological matrix. This was accomplished by evaluating six individual lots of human plasma prepared as blank and at the lower limit of quantitation (LLOQ, 0.500 ng/mL).
The matrix effect is defined as the suppression or enhancement of ionization of analytes by the presence of matrix components in the biological samples. See, e.g., C. T. Viswanathan, “Quantitative Bioanalytical Methods Validation and Implementation: Best Practices for Chromatographic and Ligand Binding Assays,” Pharmaceutical Research, Vol. 24, No. 10, October 2007, p. 1969. The matrix effect was evaluated by extracting single replicates of six lots of blank human plasma and spiking each lot at the Low and High QC concentration levels (1.50 ng/mL and 375 ng/mL) post extraction. The area ratios of the six lots of post-extraction spiked plasma samples were compared to the mean area ratio obtained from three replicates of the neat solution prepared at the same concentration level in purified water.
The linearity of the method was evaluated at a linear range of 0.500/0.500-500/500 ng/mL for ketamine/norketamine in human plasma. Linear regression (with a weighting factor of 1/x2) was used to produce the best fit for the concentration-detector response relationship for ketamine and norketamine in human plasma.
The validation was conducted with a target LLOQ of 0.500 ng/mL for ketamine and norketamine in human plasma. To evaluate the sensitivity, six QC samples prepared at the LLOQ were analyzed during three individual batch runs as part of the intra-run and inter-run accuracy and precision for the method. The concentrations were calculated with the calibration curve.
The intra-run and inter-run accuracy and precision of the method were investigated at four different QC concentration levels (0.500 ng/mL (LLOQ), 1.50 ng/mL, 80.0 ng/mL, and 375 ng/mL).
Recoveries were calculated according to the following formula: […]
To assess the reinjection reproducibility, an analyte batch containing a standard curve and QC samples was reinjected after being kept at room temperature for 161.5 hours.

For a further series, the system named is adult subjects with TRD. Particulars: in vivo.
The subject of series [3] is patients with treatment-resistant depression (TRD). As to the kind of experiment: CGI-S, phase 2 dose-response study in TRD. The format is in vivo, human. Here is the method: Overall illness severity was assessed on the Clinical Global Impression of Severity (CGI-S) scale (Guy, “ECDEU Assessment Manual for Psychopharmacology-Revised (DHEW Publ No ADM 76-338)”, Rockville, Md.: U.S. Department of Health, Education, and Welfare, Public Health Service, Alcohol, Drug Abuse, and Mental Health Administration, NIMH Psychopharmacology Research Branch, Division of Extramural Research Programs; 1976, pp 218-222). Participants assessed their severity of anxiety on the Generalized Anxiety Disorder 7-item (GADS-7) Scale (See, Tables 157 and 158). See, Spitzer, “A brief measure for assessing generalized anxiety disorder—the GAD-7”, Arch. Intern. Med., 2006, 166(10):1092-1097.

Series [4] relates to elderly subjects with TRD. Particulars: human, in vivo, other: intranasal. The source holds these as a separate data set.
Protocol: The Clinician Administered Dissociative States Scale (CADSS) was measured prior to the start of each dose, at 40 minutes, and 1.5 hours postdose.
Series [5] relates to subjects with MDD at imminent risk for suicide. Particulars: human, in vivo, other: intranasal, 84 mg. Here is the method: Transient blood pressure increases peaked for the esketamine group at approximately 40 minutes post dose with the maximum mean increases (across all dosing days) in systolic BP being 8.7 in the placebo group and 16.7 in the esketamine 84 mg group. The maximum mean increases (across all dosing days) in diastolic BP were 7.6 in the placebo group and 11.9 in the esketamine 84 mg group. […] See, FIGS. 46 and 47.

SMILES strings stand for the structures.

Protocol for adult subjects with TRD: Blood pressure and pulse/heart rate measurements were assessed supine with a completely automated device. Manual techniques were used only if an automated device is not available. Blood pressure and pulse/heart rate measurements were preceded by at least 5 minutes of rest in a quiet setting without distractions (e.g., television, cell phones).
Descriptive statistics of temperature, pulse/heart rate, respiratory rate, pulse oximetry, and blood pressure (systolic and diastolic) (supine) values and changes from baseline were summarized at each scheduled time point. The percentage of subjects with values beyond clinically important limits were summarized.

`CN[C@]1(c2ccccc2Cl)CCCCC1=O` [esketamine, (S)-2-(2-chlorophenyl)-2-(methylamino)cyclohexanone]: the “CADSS dissociative and perceptual change symptoms resolved by (postdose)” value (in the series on subjects with TRD; in series [4]) was no more than 1.5 h throughout. For the same compound, in series [1], the “Proportion of subjects with sedation (post dose MOAA/S score ≤3)” value is recorded as less than 4%. The “QC sample freeze/thaw stability” value in series [2] (freeze (−20° C.)/thaw (room temperature)) was 3 freeze (−20° C.)/thaw (room temperature) cycles. The “QC sample long-term storage stability” value in series [2] (human plasma QC sample at −20° C.) came out at 707 days at −20 °C. The “QC sample bench-top stability” value in series [2] (human plasma QC sample, room temperature) is given as 18 hours at room temperature. Moreover, the “Maximum mean increase in diastolic BP (across all dosing days)” value with adult subjects with TRD is recorded as 8.1; in series [5] (40 minutes), 11.9. Further, the “Transient blood pressure increases: returned to normal range at” value with adult subjects with TRD came to 90 min. In addition, the “Transient blood pressure increases: time of peak post dose” value with adult subjects with TRD is given as “approximately 40 minutes”. The “CGI-S Median (Range)” value is reported as 4.0 (3, 5) in series [3] (Period 1, 28 mg); 4.0 (1, 5) in series [3] (Period 1, 56 mg); 4.0 (1, 6) in series [3] (Period 1, 84 mg); 4.0 (3, 5) in series [3] (Period 2, 28 mg); 5.0 (4, 6) in series [3] (Period 2, 56 mg); 4.0 (3, 5) in series [3] (Period 2, 84 mg). Also, the “CGI-S Median Change (Range) from baseline to end point” value in series [3] (Period 1, 28 mg) is on record as −1.0 (−2, 1); in series [3] (Period 1, 56 mg), −1.0 (−3, 0); in series [3] (Period 1, 84 mg), −0.5 (−4, 0); in series [3] (Period 2, 28 mg), −1.0 (−1, 0); in series [3] (Period 2, 56 mg) it was −1.0 (−2, 0); in series [3] (Period 2, 84 mg) it was −1.0 (−2, 0). Moreover, the “Blood pressure returning to normal range by (post dose)” value in series [5] is no more than 2 h. Also, the “Maximum mean increase in systolic BP (across all dosing days)” value in series [5] (40 minutes) is reported as 16.7.

(Values after patent US20230121313A1 (priority 2019, published 2023).)
